Reference: patent US12208167B1 (priority 2024, dated 2025)
Where a name gives a salt, the structure may show the parent alone.

Tests used:
[1] = cited from earlier work
[2] = single oral dose of 5 mg delayed release tablet, fasting
Protocol: Male and female study participants (in equal proportions) were enrolled in the study. A total of 54 normal, healthy, adult, human study participants were enrolled. All subjects either received test product (test) or reference product (reference) in each period according to the randomization schedule after ensuring maintenance of pre-dose restrictions (fasting for 10 hours prior to administration in sitting posture with 240±2 mL of drinking water at ambient temperature).
A washout period of 7 days was observed between both study periods. Study restrictions with respect to fluid intake and sitting positions were implemented during the restriction periods throughout the study in all periods.
Study participants were instructed not to break, cut, and chew the tablet (test or reference) but to swallow whole and were asked to take it with the specified quantity of water. Water intake was not allowed for 1 hour before dosing until 1 hour after dosing except while administration of the dose. After dosing, the participants remained in sitting position for first two hours. On dosing days, meals were given as per the following schedule. […]
The actual post-dose time of collection was used in the calculation of the above pharmacokinetic parameters. Drug concentrations that are below limit of quantification (BLQ) were treated as “zero” in all pharmacokinetic and statistical calculations. […]

[3] = cited from earlier work; remark: listed apart in the source

## COc1ccc2c3c1OC1C[C@@H](OC(=O)c4ccccc4)C=C[C@@]31CCN(C)C2 (stereo partly drawn) [benzgalantamine, (4aS,6R,8aS)-4a,5,9,10,11,12-hexahydro-3-methoxy-11-methyl-6H[1]benzofuro[3a,3,2-ef][2]benzazepin-6 benzoate gluconate salt]
[1]; intranasal, twice daily dose of 11 mg
  gastrointestinal adverse events: No gastrointestinal adverse events were observed
[1]; intranasal, up to a twice daily dose of 22 mg
  tolerability: well tolerated
[1]; nasal administration, previous studies
  administered compound not cleaved to galantamine, observed in blood: up to 10%
[2]
  plasma benzgalantamine concentration profile after test tablet: almost all values are zero or below limit of quantification (BLQ) at all times

## COc1ccc2c3c1O[C@H]1C[C@@H](O)C=C[C@@]31CCN(C)C2 [galantamine, (4aS,6R,8aS)-3-Methoxy-11-methyl-4a,5,9,10,11,12-hexahydro-6H-benzofuro[3a,3,2-ef][2]benzazepin-6-ol]
[3]; human, in vivo
  mean volume of distribution: 175 L
[3]; oral galantamine
  tmax: about 1 hour
